Source: patent publication US11166460B2, “α-amino acrylate microbicide, and preparation method therefor and uses thereof” (priority 2017, dated 2021)
≈ marks a conversion by molar mass, not a printed value. Like-named read-outs stand apart in the source and are kept apart here.

Tests used:
[1] = test system: Rhizoctonia cerealis; assay: Fungicidal activity, fungi growth rate method, RC; format: cell-based; conditions: Ceratobasidium cereale, 50 μg/mL
[2] = test system: tobacco mosaic virus (TMV); assay: Anti-TMV curative activity (treatment mode), live friction inoculation on tobacco seedlings; format: in vivo; conditions: Tobacco mosaic virus, read-out: Anti-TMV activity, Curative effect (inhibition), 100 μg/mL, tobacco seedlings, checked on seventh day
[3] = test system: Phytophthora infestans (Mont) de Bary; assay: microbe, parasite or virus in culture; format: cell-based; conditions: Phytophthora infestans
[4] = test system: Sclerotinia sclerotiorum; assay: microbe, parasite or virus in culture; format: cell-based; conditions: Sclerotinia sclerotiorum; for inhibition at 50 µg/mL: 50 μg/mL; for EC90: read-out: EC90 against S. sclerotiorum in vitro
[5] = test system: tobacco mosaic virus (TMV); assay: Anti-TMV inactivation activity (inactivation mode), compound mixed with TMV before inoculation of tobacco leaves; format: in vivo; conditions: Tobacco mosaic virus, read-out: Anti-TMV activity, Inactivation effect (inhibition)
[6] = test system: tobacco mosaic virus (TMV); assay: Anti-TMV protective activity (protection mode), live friction inoculation on tobacco seedlings; format: in vivo; conditions: Tobacco mosaic virus, read-out: Anti-TMV activity, Protection effect (inhibition)
[7] = test system: wheat Gibberella zeae; assay: microbe, parasite or virus in culture; format: cell-based; conditions: Fusarium graminearum
[8] = test system: Botrytis cinerea; assay: Fungicidal activity, fungi growth rate method, BC; format: cell-based; conditions: Botrytis cinerea, 50 μg/mL
[9] = test system: Cercospora arachidicola; assay: Fungicidal activity, fungi growth rate method, CA; format: cell-based; conditions: Mycosphaerella arachidis, 50 μg/mL
[10] = test system: Physalospora piricola; assay: Fungicidal activity, fungi growth rate method, PP; format: cell-based; conditions: 50 μg/mL
[11] = test system: tobacco mosaic virus (TMV); assay: Anti-TMV inducing activity (induction mode), tobacco seedlings; format: in vivo; conditions: Tobacco mosaic virus, read-out: Anti-TMV activity, Induction effect (inhibition), 100 μg/mL, tobacco seedlings
[12] = test system: Pellicularia sasakii; assay: Fungicidal activity, fungi growth rate method, PS; format: cell-based; conditions: 50 μg/mL
[13] = test system: Alternaria solani; assay: Fungicidal activity, fungi growth rate method, AS; format: cell-based; conditions: Alternaria solani, 50 μg/mL
[14] = read-out: Fungicidal activity (inhibition) against RC: Rhizoctonia cerealis
[15] = read-out: Fungicidal activity, inhibition, RC
[16] = read-out: Fungicidal activity (inhibition) against PI: Phytophthora infestans (Mont) de Bary
[17] = read-out: Fungicidal activity, inhibition, PI
[18] = read-out: Fungicidal activity (inhibition) against SS: Sclerotinia sclerotiorum
[19] = read-out: Fungicidal activity, inhibition, SS
[20] = read-out: Fungicidal activity (inhibition) against GZ: wheat Gibberella zeae
[21] = read-out: Fungicidal activity, inhibition, GZ
[22] = read-out: Fungicidal activity (inhibition) against BC: Botrytis cinerea
[23] = read-out: Fungicidal activity, inhibition, BC
[24] = read-out: Fungicidal activity (inhibition) against CA: Cercospora arachidicola
[25] = read-out: Fungicidal activity, inhibition, CA
[26] = read-out: Fungicidal activity (inhibition) against PP: Physalospora piricola
[27] = read-out: Fungicidal activity, inhibition, PP
[28] = read-out: Fungicidal activity (inhibition) against PS: Pellicularia sasakii
[29] = read-out: Fungicidal activity, inhibition, PS
[30] = read-out: Fungicidal activity (inhibition) against AS: Alternaria solani
[31] = read-out: Fungicidal activity, inhibition, AS

Row | Structure (SMILES) | inhibition at 50 µg/mL [1, 14] [%] | inhibition at 50 µg/mL [1, 15] [%] | inhibition at 100 µg/mL [2] [%] | inhibition at 50 µg/mL [3, 16] [%] | inhibition at 50 µg/mL [3, 17] [%] | inhibition at 50 µg/mL [4, 18] [%] | inhibition at 50 µg/mL [4, 19] [%] | inhibition at 100 µg/mL [5] [%] | inhibition at 100 µg/mL [6] [%] | melting point [°C] | inhibition at 50 µg/mL [7, 21] [%] | inhibition at 50 µg/mL [8, 22] [%] | inhibition at 50 µg/mL [8, 23] [%] | inhibition at 50 µg/mL [9, 24] [%] | inhibition at 50 µg/mL [9, 25] [%] | inhibition at 50 µg/mL [10, 26] [%] | inhibition at 50 µg/mL [10, 27] [%] | inhibition at 100 µg/mL [11] [%] | inhibition at 50 µg/mL [12, 29] [%] | inhibition at 50 µg/mL [13, 31] [%] | further results
1 | O=C(NC1CCCCC1)/C(=C/c1ccccc1)NC(=O)c1ccccc1 [Compound 40, (Z)-N-[1-[(cyclohexylamino)carbonyl]-2-phenylethenyl]benzamide] | < 20 | 10 | 0 | < 25 | 11 | 56 | 56 | 0 | 0 | 204 to 206 | 11 | ≤ 20 | 10 | < 25 | 10 | < 20 | 0 | 45 | 6 | 13 | inhibition at 50 µg/mL [7, 20]: < 45%; inhibition at 50 µg/mL [12, 28]: < 30%; inhibition at 50 µg/mL [13, 30]: < 30%
2 | CNC(=O)/C(=C/c1csc(C2CCN(C(=O)OC(C)(C)C)CC2)n1)NC(=O)c1ccccc1 [Compound 41, (Z)-N-[1-[(methylamino)carbonyl]-2-[4-[2-[4-(1-Boc-piperidine)]thiazol]]ethenyl]benzamide] | – | 33 | 0 | – | 39 | – | 96 | 0 | 30 | 107 to 109 | 34 | 52 | 52 | – | 35 | – | 37 | 2 | 33 | 54 | EC90 [4]: 375 µg/mL (≈ 796 µM)
3 | CONC(=O)/C(=C/c1csc(C2CCN(C(=O)OC(C)(C)C)CC2)n1)NC(=O)c1ccccc1 [Compound 42, (Z)-N-[1-[(methoxylamino)carbonyl]-2-[4-[2-[4-(1-Boc-piperidine)]thiazol]]ethenyl]benzamide] | 45 | 45 | 0 | 44 | 44 | – | 93 | 0 | 41 | 111 to 113 | 42 | 53 | 53 | 44 | 44 | 44 | 44 | 20 | 43 | 63 | EC90 [4]: 155 µg/mL (≈ 318 µM); inhibition at 50 µg/mL [12, 28]: 43%; inhibition at 50 µg/mL [13, 30]: 63%
4 | CC(C)(C)OC(=O)N1CCC(c2nc(/C=C(\NC(=O)c3ccccc3)C(=O)NCC(F)F)cs2)CC1 [Compound 43, (Z)-N-[1-[(2,2-difluoroethylamino)carbonyl]-2-[4-[2-[4-(1-Boc-piperidine)]thiazol]]ethenyl]benzamide] | 38 | 38 | 30 | 38 | 38 | – | 96 | 27 | 2 | 164 to 165 | 36 | – | 40 | – | 32 | – | 40 | 31 | 39 | 43 | EC90 [4]: 154 µg/mL (≈ 295 µM)
5 | O=C(N/C(=C\c1ccccc1)C(=O)N1CCC(O)CC1)c1ccccc1 [Compound 45, (Z)-N-[1-[(4-hydroxy-1-piperidinyl)carbonyl]-2-phenylethenyl]benzamide] | < 20 | 13 | 30 | < 25 | 24 | 38 | 38 | 22 | 54 | 115 to 117 | 43 | – | 12 | < 25 | 6 | < 20 | 6 | 52 | 3 | 25 | inhibition at 50 µg/mL [7, 20]: < 45%; inhibition at 50 µg/mL [12, 28]: < 30%; inhibition at 50 µg/mL [13, 30]: < 30%
6 | O=C(NCc1ccc(Br)cc1)/C(=C/c1ccccc1)NC(=O)c1ccccc1 [Compound 46, N-[(1Z)-2-phenyl-1-[[(4-bromophenylmethyl)amino]carbonyl]ethenyl]benzamide] | – | 13 | 33 | – | 11 | – | 34 | 64 | 41 | 192 to 194 | 43 | – | 9 | – | 18 | – | 12 | 44 | 2 | 7 | –
7 | CC(C)(C)OC(=O)N1CCC(c2nc(/C=C(\NC(=O)c3ccccc3)C(=O)NCc3ccc(Br)cc3)cs2)CC1 [Compound 47, N-[(1Z)-2-[4-[2-[4-(1-Boc-piperidine)]thiazol]]-1-[[(4-bromophenylmethyl)amino]carbonyl]ethenyl]benzamide] | – | 21 | 56 | – | 20 | 80 to 95 | 82 | 0 | 41 | 101 to 103 | 22 | – | 32 | – | 22 | – | 22 | 53 | 19 | 36 | –
8 | O=C(NC(Cc1ccccc1)C(=O)N1CCC(c2ccccc2)CC1)c1ccccc1 (stereo not drawn) [Compound 48, N-[1-[[4-(4-phenyl)-1-piperidinyl]carbonyl]-2-phenylethyl]benzamide] | – | 11 | 25 | – | 23 | – | 64 | 32 | 2 | 143 to 144 | 11 | – | 17 | – | 9 | – | 14 | 27 | 17 | 18 | –
9 | O=C(NC(Cc1ccccc1)C(=O)N1CCC(O)(c2ccc(Br)cc2)CC1)C1CC1 (stereo not drawn) [Compound 49, N-[1-[[4-(4-bromophenyl)-4-hydroxy-1-piperidinyl]carbonyl]-2-phenylethyl]cyclopropanecarboxamide] | – | 18 | 29 | – | 11 | – | 50 | 31 | 41 | 101 to 103 | 43 | – | 15 | – | 12 | – | 6 | 21 | 14 | 28 | –
10 | O=C(NC(Cc1ccccc1)C(=O)N1CCC(O)(c2ccc(Br)cc2)CC1)C1CCCCC1 (stereo not drawn) [Compound 50, N-[1-[[4-(4-bromophenyl)-4-hydroxy-1-piperidinyl]carbonyl]-2-phenylethyl]cyclohexanecarboxamide] | – | 23 | 37 | – | 26 | – | 50 | 34 | 47 | 200 to 202 | 29 | – | 29 | – | 26 | – | 18 | 34 | 20 | 29 | –
